{"source": "patent US10286034B2", "about": "“Uses of bremelanotide in therapy for female sexual dysfunction” (Palatin Technologies, Inc., priority 2012, dated 2019)", "key": {"[1]": {"test": "Intranasal 10 mg Phase 2 studies in women with FSAD: plasma concentration 30 minutes post dose", "type": "in vivo, human", "settings": "10 mg intranasal", "description": "(§1) In the bremelanotide premenopausal arm, 42.5% of the subjects were discontinued due to hypertension, nausea, vomiting or myalgia. Subjects received a 10 mg intranasal dose of bremelanotide, with premenopausal subjects determined to have a mean plasma concentration of 88.5±51.9 ng/mL and a % CV of 58.6, and postmenopausal subjects determined to have a mean plasma concentration of 93.2±68.5 ng/mL and a % CV of 73.5. The minimum and maximum plasma concentration levels for all women at thirty minutes post dose range from 0.0 ng/mL to 207.0 ng/mL.\nIn the intranasal study, premenopausal women self-administered a 10 mg intranasal dose."}, "[2]": {"system": "premenopausal and postmenopausal women with FSAD", "test": "Intranasal Phase 2 studies: efficacy, adverse events, discontinuation", "type": "in vivo, human", "description": "as §1\nResults with premenopausal women in a placebo-controlled, randomized, double-blind, parallel group, at-home exploratory study to evaluate the efficacy and safety of intranasally administered bremelanotide in subjects with female sexual arousal disorder (FSAD) were compared against results in the study of Example 1. In the intranasal study, a total of 76 premenopausal subjects were randomized, with 40 subjects to receive bremelanotide and 36 to receive placebo. Twenty-two subjects treated with bremelanotide and 29 treated with placebo completed the study, with 16 subjects who received bremelanotide (40%) discontinuing from the study due to an adverse event. This compares to the study of Example 1, in which as shown by Table 6 only 8% of subjects on the 1.75 mg subcutaneous dose discontinuing due to an adverse event."}, "[3]": {"system": "female rats", "settings": "cited from earlier work"}, "[4]": {"system": "women diagnosed with sexual arousal disorder", "settings": "single intranasal dose of 20 mg, cited from earlier work"}, "[5]": {"system": "men diagnosed with erectile dysfunction", "settings": "subcutaneous injection of 4 or 6 mg; cited from earlier work"}, "[6]": {"settings": "all women, thirty minutes post dose"}, "[7]": {"settings": "10 mg intranasal, premenopausal, 40 subjects randomized"}}, "data": [{"compound": "CCCC[C@H](NC(C)=O)C(=O)N[C@H]1CC(=O)NCCCC[C@@H](C(=O)O)NC(=O)[C@H](Cc2c[nH]c3ccccc23)NC(=O)[C@H](CCCNC(=N)N)NC(=O)[C@@H](Cc2ccccc2)NC(=O)[C@H](Cc2c[nH]cn2)NC1=O", "note": "[bremelanotide, Ac-Nle-cyclo(-Asp-His-D-Phe-Arg-Trp-Lys)-OH]", "values": [{"measurement": "maximum plasma concentration level", "setting": "[1]; [6]", "value": 207.0, "unit": "ng/mL"}, {"measurement": "minimum plasma concentration level", "setting": "[1]; [6]", "value": 0.0, "unit": "ng/mL"}, {"measurement": "% CV of plasma concentration", "setting": "[1]; postmenopausal subjects", "value": 73.5, "unit": "%"}, {"measurement": "% CV of Cmax (plasma concentration)", "setting": "[1]; premenopausal women, 30 minutes post dosing", "value": 58.6, "unit": "%"}, {"measurement": "level at 0.5 h", "setting": "[1]; female, human, plasma, inhaled or intranasal, postmenopausal subjects", "value": "93.2 ± 68.5", "unit": "ng/mL"}, {"measurement": "subjects discontinuing from the study due to an adverse event, number", "setting": "[2]; [7]", "value": 16}, {"measurement": "subjects discontinuing from the study due to an adverse event, percent", "setting": "[2]; [7]", "value": 40, "unit": "%"}, {"measurement": "subjects reporting at least one adverse event", "setting": "[2]; intranasal, postmenopausal subjects", "value": 100, "unit": "%"}, {"measurement": "sexual desire and arousal compared to placebo", "setting": "[2]; intranasal, premenopausal and postmenopausal women with FSAD, two Phase 2 trials", "value": "increase sexual desire and arousal compared to placebo"}, {"measurement": "subjects discontinued due to hypertension, nausea, vomiting or myalgia", "setting": "[2]; intranasal, premenopausal arm", "value": 42.5, "unit": "%"}, {"measurement": "subjects reporting at least one adverse event", "setting": "[2]; intranasal, premenopausal subjects", "value": 92.5, "unit": "%"}, {"measurement": "effect on sexual behavior", "setting": "[3]", "value": "selective pharmacological effect on appetitive sexual behavior"}, {"measurement": "Fos induction", "setting": "[3]; subcutaneous injections", "value": "inducing the immediate-early gene product Fos in a variety of limbic and hypothalamic structures"}, {"measurement": "dopamine release", "setting": "[3]; subcutaneous injections", "value": "increasing dopamine release in the medial preoptic area"}, {"measurement": "vaginal pulse amplitude measures", "setting": "[4]; compared to placebo", "value": "without statistically relevant differences, compared to placebo"}, {"measurement": "reported feelings of sexual arousal", "setting": "[4]", "value": "statistically relevant reported feelings of sexual arousal"}, {"measurement": "erectile response", "setting": "[5]", "value": "statistically significant erectile response compared to placebo"}]}]}
